The source of these data is patent US7064190B1, “Antigen-specific, activated T lymphocytes, detection and use” (Roche Diagnostics GmbH, priority 1994, dated 2006).

Type in all cases: cell-based, human
For assay [1], the system named is T cell line 6/10. As to the kind of experiment: Proliferation test with variants of the peptide 5G1 using the T cell line 6/10. The settings on record: for Stimulation index: TCL 6/10, variants of peptide 5G1. The method, then:
In order to elucidate the core structure of the stimulating peptide 5G1, proliferation tests were carried out with various variants of this peptide using the T cell line 6/10 (see Table 4).
A test with a first series of 20 mer variants is intended to ascertain whether amino acids which border on the 5G1 structure at the C- or N-terminus play a role in the recognition by the T cell line 6/10. […] A 6 amino acid shift towards the N-terminus leads to a loss in stimulation capacity.
A test with a second series of peptide variants examines the influence of a shortening at the C-terminus.
The object of a test with a third series of peptide variants was to define the N-terminus of the minimum stimulation-active peptide. If the amino acids leucine (L) and proline (P) are removed from a 18 mer with an intact C-terminus, this leads to a strong decrease of the stimulation index. The N-terminus is thus defined by L and P. If the […] is shortened further by H and F this also leads to a loss of stimulation activity.

Assay [2] concerns T cell line 6/7. In words: T cell proliferation with peptides using PBLs of various haplotypes as antigen-presenting cells, TCL 6/7. As to conditions: for SI (stimulation index): TCL 6/7. The protocol: (§1) The experimental procedure is analogous to example 1.3. […] The proliferation tests were carried out using the autoantigenic peptides 5G1 (corresponding to amino acids 266–285 of human GAD65) and 5F3 (corresponding to amino acids 306–325 of human GAD65).
(§2) T cell proliferation after stimulation with the peptides 5G1 and 5F3 using PBLs with various haplotypes as antigen-presenting cells

Assay [3] deals with T cell line 6/7. In words: Proliferation test with peptides derived from the H-GAD sequence, T cell line 6/7. As to conditions: 10 μg/ml individual peptides from pools 7 and 11, FIG. 5. The protocol:
(§3) Autologous PBLs or PBLs of a normal donor which are identical with regard to the HLA class II antigens are used as stimulator cells. The PBLs are pre-incubated with antigen as described in paragraph 2, irradiated with 4000 rad and distributed in 96 well plates (100 000 cells/well).
(§4) After 3–4 days at 37° C./7% CO2, 1 μCi ^3H-thymidine is added and incubated for a further 16–20 hours. Afterwards the cells are transferred onto a glass fibre filter by means of a cell harvester instrument and the incorporated radioactivity is determined in a β counter.
(§5) T cell lines that had been expanded by means of at least 4 restimulation cycles and which reacted with SW-GAD in the proliferation test were additionally tested with overlapping peptides of H-GAD. The object of these experiments is to define the epitopes of H-GAD that are recognized by the T cells. For this, overlapping 20 mer peptides of H-GAD are firstly synthesized (overlapping region 10 amino acids, total of 59 different peptides).
(§6) […] The further treatment of these stimulator cells is carried out as described in section 3a.
(§7) Subsequently 6000–20,000 T cells are added per microculture well. The further procedure is analogous to that described in section 3b.

Assay [4] concerns T cell line 6/10. In words: Proliferation test with peptides derived from the H-GAD sequence, T cell line 6/10. The settings on record: 10 μg/ml individual peptides from pools 7 and 11, FIG. 6. The method, then: as §3, §4, §5, §6, §7
Assay [5] has as its system T cell line 6/10. In words: T cell proliferation with peptides using PBLs of various haplotypes as antigen-presenting cells, TCL 6/10. As to conditions: for proliferation in the presence of the DR B1 allele 0401: T cell line 6/10; for SI (stimulation index): TCL 6/10. The protocol: as §1, §2
Assay [6] relates to T cell line 6/10. In words: Proliferation test with SW-GAD, T cell line 6/10. As to conditions: stimulator PBLs pulsed with SW-GAD. The protocol:
(§8) The first restimulation is carried out on the 14th day after the beginning of the primary stimulation. For this, in comparison to the primary stimulation, double the number of autologous PBLs is isolated by means of Ficoll and adjusted in culture medium to a cell concentration of 2×10^6/ml. One half of these stimulator cells is incubated for 2 hours/37° C./7% CO2 with the antigen SW-GAD (final concentration 5 μg/ml) (antigen pulse). The other half is incubated under the same conditions without antigen and only with culture medium. Subsequently all stimulator cells are irradiated with 4000 rad. The stimulator cells are then distributed (100 000 cells/well) in 96 well round-bottom plates in such a way that a well with stimulator cells containing antigen is always adjacent to a well with stimulator cells without antigen.
(§9) All tests are carried out in at least duplicate preparations.
(§10) Autologous PBLs or PBLs of a normal donor which are identical with regard to the HLA class II antigens are used as stimulator cells. […]
as §4

Assay [7] deals with T cell line 6/7. In words: Proliferation test with SW-GAD, T cell line 6/7. As to conditions: stimulator PBLs pulsed with SW-GAD. The method, then:
as §8, §9, §10, §4

Where [8] appears, read: APC donor four (DR B1 0301/0401).
Setting [9] is: APC donor one (DR B1 1302/0401).
Where [10] appears, read: APC donor three (DR B1 0301/0404).
[11] abbreviates: APC donor two (DR B1 0101/1601).

Regarding PEVKEKGMAALPRLIAFTSE [SEQ ID NO:8], the Stimulation index with T cell line 6/10 [1] stood at 0.6.
Molecule RLIAFTSEHSHFSL [SEQ ID NO:16] came in with a Stimulation index with T cell line 6/10 [1] of 1.4.
GMAALPRLIAFT [SEQ ID NO:14]: the Stimulation index in the assay with T cell line 6/10 [1] is 1.0.
In the case of “ERGKMIPSDLERRILEAKQK (ERGKMIPSDLERRILEAKQK) [5F3, corresponding to amino acids 306–325 of human GAD 65]”, the results for the “proliferation in the presence of the DR B1 allele 0401” value in the assay with T cell line 6/7 [2] (T cell line 6/7) and in the assay on T cell line 6/10 [5] were “proliferation in the presence of the DR B1 allele 0401 is found” and “proliferates”, respectively. The “SI (stimulation index)” value amounted to 3.1 with T cell line 6/7 [2] (APC donor 19 (DR B1 0301/0401)); 3.8 in the assay with T cell line 6/7 [2] (setting [8]); 7.0 with T cell line 6/7 [2] (setting [9]); 0.6 with T cell line 6/7 [2] (setting [10]); 1.2 in the assay on T cell line 6/7 [2] (setting [11]); 2.8 with T cell line 6/10 [5] (APC donor 19 (DR B1 0301/0401)). Besides, the “SI (stimulation index)” value is reported as 3.8 with T cell line 6/10 [5] (setting [8]), 6.5 in the assay with T cell line 6/10 [5] (setting [9]), 1.5 in the assay with T cell line 6/10 [5] (setting [10]) and 1.4 in the assay on T cell line 6/10 [5] (setting [11]). In addition, the “proliferation with individual peptides” value with T cell line 6/7 [3] and in the assay with T cell line 6/10 [4] was “smaller but significant proliferation” each time.
As for “GMAALPRLIAFTSEHSHFSL [5G1, corresponding to amino acids 266–285 of human GAD 65]”, in the assay on T cell line 6/10 [1], the Stimulation index was determined as 5.4. The “recognition in association with the alleles DR B1 0101 or/and 1601” value with T cell line 6/7 [2] (T cell line 6/7) was “recognizes”. For the same molecule, the “SI (stimulation index)” value in the assay on T cell line 6/7 [2] (APC donor 19 (DR B1 0301/0401)) was 45.7; in the assay with T cell line 6/7 [2] (setting [8]), 55.0; with T cell line 6/7 [2] (setting [9]), 67.8; with T cell line 6/7 [2] (setting [10]), 0.9; with T cell line 6/7 [2] (setting [11]) it was 28.6; in the assay on T cell line 6/10 [5] (APC donor 19 (DR B1 0301/0401)), 8.5. Moreover, the “SI (stimulation index)” value in the assay with T cell line 6/10 [5] (setting [8]) turned out to be 6.0; in the assay with T cell line 6/10 [5] (setting [9]), 22.6; in the assay on T cell line 6/10 [5] (setting [10]), 1.5; with T cell line 6/10 [5] (setting [11]) it was 2.2. Moreover, the “proliferation with individual peptides” value with T cell line 6/7 [3] and in the assay on T cell line 6/10 [4] was “significant proliferation” in each case.
In the assay with T cell line 6/10 [1], AALPRLIAFTSEHS [SEQ ID NO:11] registered a Stimulation index of 0.7.
For ALPRLIAFTSEHSHFSLKKG [SEQ ID NO:6], the Stimulation index in the assay with T cell line 6/10 [1] was 3.0.
On the same count and under the same terms, next, LPRLIAFTSEHSHFSLKK [SEQ ID NO:15]: 3.2.
Turning to “GMAALPRLIAFTSEHSHFSLKKGAA (GMAALPRLIAFTSEHSHFSLKKGAA) [amino acid sequence (I), amino acid residues 266–290 of the human GAD 65]”, in the assay on T cell line 6/7 [2] (T cell line 6/7), the “proliferation in the presence of the DR B1 allele 0401 and 0101 or/and 1601” value is recorded as “proliferates”. The “proliferation in the presence of the DR B1 allele 0401” value in the assay with T cell line 6/10 [5] is reported as “proliferates”.
As for LPRLIAFTSEHSHF [SEQ ID NO:17], the “stimulation capacity of 5G1 variants” value in the assay on T cell line 6/10 [1] (T cell line 6/10) was “minimum peptide that can still stimulate”. In the assay with T cell line 6/10 [1], the Stimulation index came to 4.6.
In turn, GMAALPRLIAFTSE [SEQ ID NO:13] registered a Stimulation index in the assay on T cell line 6/10 [1] of 0.8.
As for RLIAFTSEHSHFSLKKGAAA [SEQ ID NO:7], in the assay with T cell line 6/10 [1], the Stimulation index turned out to be 3.2.
Same read-out and setting: next, AALPRLIAFTSE [SEQ ID NO:12]: 0.6; AALPRLIAFTSEHSHFSL [SEQ ID NO:9]: 4.5.
On the same count and under the same terms, to LPRLIAFTSEHS [SEQ ID NO:18] belongs 0.4; to AALPRLIAFTSEHSHF [SEQ ID NO:10], 2.9.

B1: SW-GAD: porcine GAD (glutamic acid decarboxylase from pig brain) used as antigen (protein)
chain: MASSTPSSSATSSNAGPDPNTTNLRPTTYDTWCGVAHGCTRKLGLKICGFLQRTNSLEEKSRLVSAFKERQSSKNLLSCENSDRDGRFRRTETDFSNLFARDLLPAKNGEEQTVQFLLEVVDILLNYVRKTFDRSTKVLDFHHPHQLLEGMEGFNLELSDHPESLEQILVDCRDTLKYGVRTGHPRFFNQLSTGLDIIGLAGEWLTSTANTNMFTYEIAPVFVLMEQITLKKMREIVGWSNKDGDGIFSPGGAISNMYSIMAARYKYFPEVKTKGMAAVPKLVLFTSEHSHYSIKKAGAALGFGTDNVILIKCNERGKIIPADLEAKILEAKQKGYIPLYVNATAGTTVYGAFDPIQEIADICEKYNLWLHVDAAWGGGLLMSRKHRHKLSGIERADSVTWNPHKMMGVLLQCSAILVKEKGILQGCNQMCAGYLFQPDKQYDVSYDTGDKAIQCGRHVDIFKFWLMWKAKGTVGFENQINKCLELAEYLYAKIKNREEFEMVFDGEPEHTNVCFWYIPQSLRGVPDSPERREKLHRVAPKIKALMMESGTTMVGYQPQGDKANFFRMVISNPAATQSDIDFLIEEIERLGQDL
Consider B1, for which the “cpm SW-GAD (3H-thymidine incorporation)” value came out at 5222 cpm with T cell line 6/10 [6] and 9373 cpm with T cell line 6/7 [7].
